Holding throughout (format): cell-based
Series [1] addresses Trypanosoma cruzi, Tulahuen CL2, β galactosidase strain. Briefly: In vitro anti-Trypanosoma cruzi activity. As to conditions: read-out: T. cruz. IC50. As for the experimental part: In Vitro Anti-Trypanosoma cruzi Activity
All cultures and assays were conducted under a humidified atmosphere (37° C., 5% CO2). […] The change in color was measured spectrophotometrically at 540 nm after 4 h at 37° C. […] Benznidazole was included as reference drug.

The test system of another series is TZM-bl cells. Briefly: WST-1 cytotoxicity assay. As to conditions: read-out: CC50 (50% cytotoxic concentration). The text has this: The Water Soluble Tetrazolium-1 (WST-1) Cell Proliferation Assay is a colorimetric assay for the measurement of cell proliferation and viability. The assay is based on the cleavage of the tetrazolium salt WST-1 (4-[3-(4-iodophenyl)-2-(4-nitrophenyl)-2H-5-tetrazolio]-1,3-benzene disulfonate) to a formazan dye by a complex cellular mechanism. This bioreduction is largely dependent on the glycolytic production of NAD(P)H in viable cells. Therefore, the amount of formazan dye formed correlates directly to the number of viable cells in the culture, and can be quantified by measuring the absorbance at 450 nm in a multiwell plate reader. The greater the number of viable cells, the greater the amount of formazan dye produced following the addition of WST-1. Cytotoxicity of each compound was evaluated using this WST-1 viability assay, according to the manufacturer's instructions (Roche, Vilvoorde, Belgium).
Briefly, ten thousand TZM-bl cells were seeded in a 96-well plate and cultured for 2 days in the presence of a serial dilution of compound. After this 48 h exposure, Cell Proliferation Reagent, WST-1, was added and absorbance at 450 nm was quantified after 90 min using a microplate reader (BioRad, Tokio, Japan). Each compound was tested in three replicate wells and in at least two independent experiments.
Background: Tetrazolium dyes change colour on reduction, which living cells bring about.

The next series deals with HIV-1 BaL. Briefly: TZM-bl assay, anti-HIV-1 activity. The settings on record: read-out: EC50 (50% effective concentration), anti-HIV-1 activity; TZM-bl cells. On the procedure:
The JC53-BL cell line, also known as the TZM-bl cell line (NIH AIDS Research and Reference Reagent Program, Germantown, USA), was used for the evaluation of anti-HIV activity. […] The resulting cell suspension was washed with an equivalent amount of TZM-bl medium and subsequently seeded in a T75 culture flask (Greiner Bio-One, Germany) at 10^6 cells in 20 mL medium.
The antiviral activity of the newly designed compounds was measured by pre-incubating ten thousand TZM-bl cells (at 10^5 cells/mL in culture medium supplemented with 30 μg/mL DEAE dextran) in a 96-well plate for 30 minutes at 37° C., 5% CO2 in the presence or absence of serial dilutions of the respective compound. Subsequently, 200 TCID50 of HIV-1 BaL was added to each well and cultures were incubated for 48 hours before quantifying luciferase activity, using a TriStar LB941 luminometer (Berthold Technologies GmbH & Co. KG, Bad Wildbad, Germany). Each condition was evaluated in triplicate wells and in at least two independent experiments. The antiviral activity of the compound was expressed as the percentage of viral inhibition compared to the untreated controls and subsequently plotted against the compound concentration.

A further series concerns P. falciparum. Briefly: In vitro anti-Plasmodium falciparum activity. The settings on record: read-out: Pf-K1 IC50.
Series [2] concerns Human lung fibroblast MRC-5SV2 cells. Description: Cytotoxicity assay on MRC-5SV2 cells (resazurin). On the procedure: Assays were performed in 96-well microtiter plates, each well containing 1×10^4 cells. […] After incubation for 72 h in a humidified atmosphere (37° C., 5% CO2) and addition of resazurin, the cell viability was assessed fluorimetrically (λex 550 nm, λem 590 nm). The results were expressed as % reduction in cell growth/viability compared to untreated control wells and IC50 values were determined. Tamoxifen was included as reference drug.
In general terms: Alamar Blue is a resazurin reagent that responds to reducing activity.

The subject of series [3] is Trypanosoma b. brucei Squib 427. Briefly: In vitro anti-Trypanosoma brucei brucei activity. The settings on record: read-out: T. bruc. IC50. On the procedure:
In Vitro Anti-Trypanosoma brucei brucei Activity:
After incubation in a humidified atmosphere (37° C., 5% CO2) for 72 h, resazurin was added for another 24 h and parasite growth was assessed fluorimetrically (λex 550 nm, λem 590 nm). […] Suramin was included as reference drug.

The subject of series [4] is Leishmania infantum MHOM/MA (BE)/67. Briefly: In vitro anti-Leishmania infantum activity. The settings on record: read-out: L. inf. IC50.
Protocol: In Vitro Anti-Leishmania infantum Activity
Leishmania infantum MHOM/MA (BE)/67 was maintained in the golden hamster and spleen amastigotes were collected for preparing infection inocula. Primary peritoneal mouse macrophages were used as host cells and collected 48 h after peritoneal stimulation with a 2% potato starch suspension. […] After incubation for 120 h in a humidified atmosphere (37° C., 5% CO2), total parasite burdens were microscopically assessed after Giemsa staining. The results were expressed as % reduction in parasite burden compared to untreated control wells and IC50 values were calculated. The extracts were tested using five fourfold dilutions starting with 64 μg/mL.
Series [5] deals with T. rhodesiense (strain STIB-900). Description: In vitro anti-Trypanosoma brucei rhodesiense activity. As to conditions: read-out: T. rhod. IC50. On the procedure:
In Vitro Anti-Trypanosoma brucei rhodesiense Activity
T. rhodesiense (strain STIB-900) was maintained in HMI-9-medium, supplemented with 10% heat-inactivated FBS. Assays were performed in 96-well microtiter plates, each well containing 10 μL of the extract dilution together with 190 μL of the parasite suspension (2×10^4 parasites/mL). After incubation in a humidified atmosphere (37° C., 5% CO2) for 72 h, resazurin was added for another 6 h and parasite growth was assessed fluorimetrically (λex 550 nm, λem 590 nm). […] Suramin was included as reference drug.

The IC50 is the point on the concentration scale where inhibition reaches its midpoint.

Bounds are passed on as bounds.

Protocol for P. falciparum: In Vitro Anti-Plasmodium falciparum Activity
All cultures and assays were conducted under a humidified atmosphere (37° C., 4% CO2, 3% O2 and 93% N2) with the assay being an adaptation of the procedure described by Desjardins et al. (12). Assays were performed in 96-well microtiter plates, each well containing 10 μL of the watery extract dilutions together with 190 μL of the malaria parasite inoculum (1% parasitemia, 2% hematocrit). After incubation for 72 h at 37° C., the plates were frozen and stored at −20° C. Upon thawing, 20 μL of each well was transferred into another plate together with 100 μL Malstat® reagent and 20 μL of a 1/1 mixture of PES (phenazine ethosulphate, 2 mg/mL) and NBT (Nitro Blue Tetrazolium Grade III, 0.1 mg/ml). […] The results were expressed as % reduction in parasitemia compared to control wells. The extracts were tested using five 4-fold dilutions starting with 64 μg/mL. Chloroquine was included as reference drug.

`Cc1cc(C)c(Nc2nc(Nc3ccc(C#N)cc3)nc(Nc3ccc(Nc4nc(Nc5ccc(C#N)cc5)nc(Nc5c(C)cc(C)cc5C)n4)cc3)n2)c(C)c1` [T12, 4,4′-((6,6′-(1,4-phenylenebis(azanediyl))bis(4-(mesitylamino)-1,3,5-triazine-6,2-diyl))bis(azanediyl))dibenzonitrile]: the 50% inhibitory concentration (IC50) was > 64000 nM in series [1]; > 64000 nM in the series on P. falciparum; > 64000 nM in series [2] (human cell line MRC5); 530 nM in series [3]; > 64000 nM in series [4]; 20 nM in series [5]. Also, the CC50 with TZM-bl cells was > 100000 nM. Besides, the EC50 in the series with HIV-1 BaL came to 167 nM. In addition, the “cytotoxicity in comparison with monomer I5” value in series [2] is “no cytotoxicity”.

Source of the values: patent US20140323488A1, “DISUBSTITUTED TRIAZINE DIMERS FOR TREATMENT AND/OR PREVENTION OF INFECTIOUS DISEASES” (Universiteit Antwerpen, priority 2011, published 2014).
